According to patent US20230265524A1, “IMMUNOGENIC RETROELEMENTS AND THEIR USE IN CANCER THERAPY” (UNIVERSITY HEALTH NETWORK, priority 2020, published 2023):

What was measured:
Type in all cases: cell-based, human
[1] = tested on: patient-derived colorectal cancer cells (CRCs); assay: total stranded RNA-seq of repeat element expression after 5-AZA-CdR; conditions: low doses of 5-AZA-CdR, 5 days, vs mock-treated
Protocol: A, Effect of 5-AZA-CdR on repeat element expression in patient-derived xenograft colorectal cancer cells after 5 days of treatment. Plots show log (fold change) for 5-AZA-CdR treated cells over mock-treated cells for anti-sense (y-axis) and sense (x-axis) transcripts of each SINE, LINE and ERV repeat element (CPM). […] The significance was determined as p≤0.05 and |log FC|≥1 at each strand.
To identify drug-induced immunogenic retroelements on a global scale, we examined the endogenous dsRNA formation in patient-derived colorectal cancer cells (CRCs) that were treated with low doses of 5-AZA-CdR, an FDA-approved DNMTi, or mock-treated. To this end, we performed total stranded RNA-seq and assessed repetitive elements transcribed in both strands, therefore likely to produce dsRNA species.

ADAR1 = assay: qPCR analysis of ADAR1 mRNA level and isoforms
Protocol: C, qPCR analysis of total ADAR1 mRNA level after treatment with 5-AZA-CdR (300 nM, for 5 days) or transfection with 100 ng ml-1 poly(I:C) over a course of 24 days. Cells were washed out at day 5 and seeded in drug-free medium. Data are mean±s.e.m.****P<0.0001, Sidak-corrected two-way ANOVA.
A, ADAR1 isoforms (p110 and p150) relative expression analysed by qPCR. LACZ denotes ADAR1WT; PIC denotes 100 ng/ml poly (I:C) for 5 days; AZA denotes 300 nM 5-AZA-CdR for 5 days). Data are mean±s.e.m. (n=3 from three independent experiments). ***P<0.001, ****P<0.0001, Tukey-corrected two-way ANOVA.
To test this hypothesis, we first determined if ADAR1 depletion affects dsRNA formation by IR-Alus in untreated patient-derived CRCs. We generated ADAR1 knock-down CRCs using two different hairpin RNAs (ADAR1^KDA/B) and confirmed depletion of both the constitutively expressed (p110) and interferon-inducible (p150) ADAR1 isoforms (FIG. 8A). […] To determine if MDA5 ligands also increase upon ADAR1 depletion, we performed the MDA5 protection assay followed by RNA-Seq, as above. […] Again, these immunogenic Alus were primarily IR-Alu pairs unidirectionally transcribed in either the sense (+/+) or antisense (−/−) direction and induced upon ADAR1 depletion (FIG. 9C-J).
Next, we tested whether epigenetic therapy can induce and activate ADAR1 editing activity.

[2] = tested on: interferon stimulated genes (ISG15, DDX58 and IRF7); assay: interferon response / ISG expression by RNA-seq GSEA and qRT-PCR in patient-derived CRC cells
Excerpt: H, Geneset Enrichment Analysis showing an enrichment of the geneset ‘Hallmark_Interferon_Alpha_Response’ in ADAR1^KD 5-AZA-treated cells compared to ADAR1^WT 5-AZA-CdR treated cells.
I, Interferon-responsive geneset enrichment score in mock-treated ADAR1^WT, 5-AZA-CdR-treated ADAR1^WT, mock-treated ADAR1^KD, and 5-AZA-CdR-treated ADAR1^KD conditions. Samples were collected 5, 14, and 24 days post-treatment.
B, Kinetics of interferon stimulated genes (ISG15, DDX58 and IRF7) relative expression in ADAR1^WT (Black) and ADAR1^KD (Gray) patient-derived colorectal cancer cells (CRCs) treated with 5-AZA-CdR analyzed by qRT-PCR. Data are mean±s.e.m. (n=3 from three independent experiments). *P<0.05, **P<0.01, ****P<0.0001, Sidak-corrected two-way ANOVA.
C, Interferon-responsive gene expression in ADAR1^WT mock-treated (MT), 5-AZA-CdR treated, ADAR1^KD NT and ADAR1^KD p(I:C) transfected samples collected 5 days, 14 days and 24 days post-treatment, measured by RNA-seq.
D, Kinetics of interferon stimulated genes (ISG15, DDX58 and IRF7) relative expression in ADAR1^WT (Black) and ADAR1^KD (Gray) patient-derived CRCs transfected with p(I:C), analyzed by qRT-PCR. Data are mean±s.e.m. **P<0.01, ****P<0.0001, Sidak-corrected two-way ANOVA.
F, Interferon stimulated genes (ISG15, DDX58 and IRF7) relative expression in CTRL (LUC) (Black) and ADAR1^p150CE (Gray) patient-derived CRCs treated with 5-AZA-CdR, analyzed by qRT-PCR. Data are mean±s.e.m. **P<0.01, ***P<0.001, Sidak-corrected two-way ANOVA.
G, IFN enrichment score in CTRL(LUC) Mock-treated, 5-AZA-CdR treated, ADAR1-p150 overexpressing NT and ADAR1-p150 overexpressing 5-AZA-CdR treated samples collected 5 days post-treatment and measured by RNA-seq.
(§1) Based on these findings, we hypothesized that ADAR1 depletion would synergize with the viral mimicry response induced by DNMTi treatment. To assess how ADAR1 depletion affects 5-AZA-CdR treated samples, we performed RNA-seq analyses in patient-derived CRC cells. […] As a molecular read-out of dsRNA pattern recognition activation, we measured MAVS aggregation in the mitochondrial fraction of cell lysates^34. […] Taken together, our findings establish that ADAR1 acts as a negative feedback loop, restricting the viral mimicry response induced by DNMTi treatment in cancer cells.

MAVS = MAVS aggregation by SDS-AGE; conditions: ADAR1-depleted, mitochondrial fraction of cell lysates
Excerpt: J, MAVS aggregation analyzed by SDS-AGE and MAVS protein level analyzed by SDS-PAGE. VDAC served as a loading control in SDS-PAGE.
as §1

[3] = tested on: patient-derived CRC cells; assay: in vitro sphere initiation assay followed by limiting dilution analysis (LDA); conditions: ADAR1-depleted CRC cells treated with 5-AZA-CdR
Protocol: B, The normalized percentage of reduction in sphere forming ability was calculated in each condition compared to Mock-treated.
One of the major challenges facing conventional chemotherapy is the persistence of cancer initiating cells (CICs), often resulting in relapse^38-40. We and others have previously shown that 5-AZA-CdR treatment can target colorectal cancer CICs by inducing the viral mimicry response^1,41. We therefore tested whether ADAR1^KD by itself or in combination with 5-AZA-CdR can decrease tumour initiation. To this end, we first employed an in vitro sphere initiation assay followed by limiting dilution analysis (LDA) using patient-derived CRC cells. […] In addition, we performed in vivo tumour initiation assays by injecting serially diluted patient-derived CRC cells into NSG immunodeficient mice and inspected tumour engraftment for up to 6 months after injection (FIG. 12F).

Nc1ncn([C@H]2C[C@H](O)[C@@H](CO)O2)c(=O)n1 [5-AZA-CdR]
sense and/or antisense transcription of repeat elements (LINEs, ERVs, SINEs) [1]: increased sense and/or antisense transcription of long interspersed nuclear elements (LINEs) and ERVs, but not short interspersed nuclear elements (SINEs) | ADAR1 expression (ADAR1; patient-derived CRCs, 300 nM for 5 days): up-regulated ADAR1 expression | duration of ADAR1 up-regulation after drug withdrawal (ADAR1; washed out at day 5, drug-free medium, 24 days course): sustained for about fourteen days after drug withdrawal | type I interferon response (GSEA) ([2]; ADAR1-depleted vs wild-type samples, both treated with 5-AZA-CdR): the most enriched pathway | persistence of enhanced interferon/ISG response ([2]; ADAR1-depleted vs wild-type, after initial treatment): persisted as long as twenty-four days after initial treatment | viral mimicry (expression of ISGs and dsRNA formation) ([2]; CRC cells overexpressing ADAR1p150): rescues the ability of 5-AZA-CdR to induce viral mimicry | MAVS activation (aggregation) (MAVS): enhanced MAVS activation | spheroid forming potential [3]: reduced the spheroid forming potential
